Assay results as given in patent publication EP0234931A1, “Azaanthracene compounds” (TAISHO PHARMACEUTICAL CO. LTD, priority 1986, dated 1987).

Tested on: p388 lymphocytic leukemia
Test: P388 Lymphocytic Leukemia Test
Assay type: in vivo, CDF₁ mice
Details: median survival time treated/control
Protocol: P388 Lymphocytic Leukemia Test
Female, CDF₁ mice (5-6 weeks old, weighing 17-20 g) were intraperitoneally transplanted with 1 × 10⁶ cells of p388 lymphocytic leukemia passaged on female, DBA/2 mice on day 0.
A suspension of the compound of formula (I) in 0.5% of gum arabic saline solution was administered intraperitoneally once a day, 5 times in all, from day l to day 5, or 2 times in all, day l and day 5. A solution of 5-fluorouracil in saline served as a reference drug, and was administered similarly. Control group were similarly administered with only 0.5% gum arabic saline solution.
Eight animals were used for the treated group with the compound of formula (I) and the reference drug, respectively, and 16 animals for control group.
The antitumor effect was evaluated according to the criterion of the National Cancer Institute of the United States (NCI). The survivors of each group were recorded for 30 days, and the value of T/C × 100 (%) was calculated from the median survival times for the treated animals (T) and the control animals (C). When the value is 125 or more, the drug is judged to be effective.

[1] = Dose 25.0 mg/kg intraperitoneally, administration day 1 - 5
[2] = Dose 50.0 mg/kg intraperitoneally, administration day 1 - 5

In the case of `O=c1[nH]cc(F)c(=O)[nH]1` [5-fluoro-uracil, 5-fluorouracil, reference compound], the “T/C x 100” value (Dose 3.1 mg/kg intraperitoneally, administration day 1 - 5) is reported as 136%, the “T/C x 100” value (Dose 6.3 mg/kg intraperitoneally, administration day 1 - 5) is reported as 148% and the “T/C x 100” value (Dose 12.5 mg/kg intraperitoneally, administration day 1 - 5) is reported as 166%. The “T/C x 100” value [1] was 176%.

In the case of `CN(C)CCNC(=O)c1c(O)c2ccccc2c2nc3ccncc3nc12` [Compound 1, N-β-dimethylaminoethyl 5-hydroxybenzo[f]pyrido[3,4-b]quinoxaline-6-carboxamide], the “T/C x 100” value (Dose 6.3 mg/kg intraperitoneally, administration day 1, 5, 30 days observation) is reported as 133%, the “T/C x 100” value (Dose 12.5 mg/kg intraperitoneally, administration day 1, 5) is reported as 137% and the “T/C x 100” value (Dose 25.0 mg/kg intraperitoneally, administration day 1, 5) is reported as 275%.

`CN(C)CCNC(=O)c1c(O)c2ccccc2c2nc3ncccc3nc12` [Compound 5, N-β-dimethylaminoethyl 5-hydroxybenzo[f]pyrido[3,2-b]quinoxaline-6-carboxamide] was tested, and the “T/C x 100” value [1] was 130%, the “T/C x 100” value (Dose 50.0 mg/kg intraperitoneally, administration day 1, 5) was 135% and the “T/C x 100” value (Dose 100 mg/kg intraperitoneally, administration day 1, 5) was 195%. For the same compound, the “T/C x 100” value (Dose 200 mg/kg intraperitoneally, administration day 1, 5) was 200%.

`O=C(NCCNCCO)c1c(O)c2ccccc2c2nc3ncccc3nc12` [Compound 7, N-2-(2-hydroxyethylamino)ethyl 5-hydroxybenzo[f]pyrido[3,2-b]quinoxaline-6-carboxamide] was tested, and the “T/C x 100” value [1] was 174% and the “T/C x 100” value [2] was 227%.

With `CN(C)CCNC(=O)c1c(O)c2ccccc2c2nc3ncncc3nc12` [Compound 8, N-β-dimethylaminoethyl 5-hydroxynaphtho[2,1-g]pteridine-6-carboxamide] the “T/C x 100” value [1] was 133%, the “T/C x 100” value [2] was 153% and the “T/C x 100” value (Dose 100 mg/kg intraperitoneally, administration day 1 - 5) was 148%.
